The results in this text go back to PubChem BioAssay AID792 (PCMD, 2007).

Records with an inconclusive call do not appear. The source made the active and inactive calls. The rule behind the calls is not given here.

This assay addresses S. cerevisiae eIF2B mutant, luciferase reporter luminescence. Description: potency on yeast eIF2B luminescence signal – S. cerevisiae, mutant, wild-type, growth, dose response (AID 792).
Where [1] appears, read: measured here: mutant yeast growth.
The mark [2] stands for this setting: S. cerevisiae wild-type, luminescence.

As to `CCOC(=O)Cc1csc(NC(NC(=O)CC)(C(F)(F)F)C(F)(F)F)n1`, the IC50 was > 100 µM (inactive). The same compound gave an IC50 under setting [1] greater than 100 µM.
For `O=C(NC1CCCC1)C(c1ccsc1)N(Cc1ccco1)C(=O)Cc1cccs1` (stereo not given), in that order: > 100 µM (inactive) and greater than 100 µM.
For `Cc1ccc(-c2cn(S(=O)(=O)c3cccc4nsnc34)nc2N)cc1`, in that order: > 100 µM (inactive) and greater than 100 µM.
For `Cc1noc(C)c1C(=O)Nc1ccc2c(c1)CCC2`, in that order: > 100 µM (inactive) and greater than 100 µM.
Take `CCCC(CCC(=O)NC1CCCCC1)C(=O)O` (stereo not given): the IC50 is > 100 µM (inactive). The IC50 under setting [1] was greater than 100 µM.
In the case of `c1ccc2c(c1)CNc1ccccc1O2`, the IC50 was > 100 µM (inactive). The same compound showed an IC50 under setting [1] greater than 100 µM.
Consider `CC(C)C(NC(=O)c1ccccc1)C(=O)NC1=NCCS1` (stereo not given), for which the IC50 is > 100 µM (inactive). For the same compound, under setting [1], the IC50 was greater than 100 µM.
For `CN(C)S(=O)(=O)c1cccc(NC(=O)COC(=O)c2ccc(Br)o2)c1`, in that order: > 100 µM (inactive) and greater than 100 µM.
For `COc1ccc(OC)c(C2=Nn3c(nnc3-c3cccc(OC(C)C)c3)SC2)c1` the same measures were > 100 µM (inactive) and greater than 100 µM.
Take `COc1ccc(C(=O)COC(=O)CN2C(=O)NC(C)(C)C2=O)cc1OC`: the IC50 was > 100 µM (inactive). Moreover, the IC50 under setting [1] is greater than 100 µM.
For `COc1ccccc1NC(=O)c1cc2ccccc2o/c1=N\O` the same measures were > 100 µM (inactive) and greater than 100 µM.
For `CCOC(=O)C1CCCN(C(=O)C(C)Oc2ccc(Cl)cc2Cl)C1` (stereo not given) the same measures were > 100 µM (inactive) and greater than 100 µM.
As to `C=CCOC(=O)C1=C(C)Nc2nc3ccccc3n2C1c1ccncc1` (stereo not given), the IC50 was > 100 µM (inactive). This compound showed a 50% inhibitory concentration (IC50) under setting [1] greater than 100 µM.
For `CN1CCN(CCC(=O)Nc2ccc3c(c2)OCO3)CC1` the same measures were > 100 µM (inactive) and greater than 100 µM.
For `Cc1cc(N)n2nc(-c3ccc(C(C)(C)C)cc3)cc2n1` the same measures were “inactive” and 30.1 µM.
In the case of `CCc1ccc2c(c1)C1(NN=C(c3ccc(C)cc3)S1)C(=O)N2` (stereo not given), the IC50 result is “inactive”. Besides, the IC50 under setting [2] is greater than 100 µM. The same compound had an IC50 under setting [1] of 99 µM.
For `CCN1CCN(c2cc(-c3ccccc3)nc3cc(-c4cccc(F)c4)nn23)CC1`, in that order: “inactive”, 6.87 µM and 8.98 µM.
For `COc1ccc(C(=O)/C=C/Nc2ccccn2)cc1` the same measures were “inactive”, 18.3 µM and greater than 100 µM.
Consider `Cc1cccc(-n2nnc3cnn(C)c3c2=O)c1`, for which the IC50 was > 100 µM (inactive). The IC50 under setting [1] is greater than 100 µM.
For `Cc1cc2n(n1)SC(Nc1ccccc1)N2` (stereo not given), in that order: > 100 µM (inactive) and greater than 100 µM.
As for `COCCn1c(C)cc(C2=NNC(=Nc3ccccc3)SC2)c1C`, the IC50 is > 100 µM (inactive). Under setting [1], this compound gave an IC50 greater than 100 µM.
For `CCC(=O)N1CCc2cc(S(=O)(=O)NC(C(=O)NCc3ccccc3)C(C)C)ccc21` (stereo not given) the same measures were > 100 µM (inactive) and greater than 100 µM.
For `CCCC1CC(C)(c2csc(Nc3ccc(OCC)cc3)n2)OC1=O` (stereo not given) the same measures were > 100 µM (inactive) and greater than 100 µM.
As for `COc1ccccc1NC(=S)NNC(=O)c1ccccc1`, the IC50 was > 100 µM (inactive). This compound had an IC50 under setting [1] greater than 100 µM.
For `COc1ccc2[nH]c(=O)c(CN(C(=O)c3cccnc3)c3ccc(C)cc3)cc2c1`, in that order: > 100 µM (inactive) and greater than 100 µM.
For `CCc1ccc2oc(-c3cccc(NC(=O)c4cccnc4)c3)nc2c1` the same measures were > 100 µM (inactive) and greater than 100 µM.
